Data reported in US20240043401A1, “SALT FORM OF TETRA-SUBSTITUTED OLEFIN COMPOUND, CRYSTAL, AND PREPARATION METHOD THEREFOR” (CHIA TAI TIANQING PHARMACEUTICAL GROUP CO., LTD., priority 2020, published 2024).
In brackets after ≈: the same amount, converted by molar mass. One block for each compound: values may come before it.

Columns and labels:
[1] = Solubility of crystalline forms (supersaturated suspension shaken at 37° C. for 24 h, HPLC-UV); type: physicochemical; settings: thermodynamic from solid, 800 rpm
Protocol: 1-2 mg of a test sample was taken and placed in a semi-automatic filter vial, and 450 μL of purified water or FeSSIF simulated fluid (fed state simulated intestinal fluid) was added to give a supersaturated suspension. The sample was vortexed for at least 2 min. The vial was placed on a plate shaker and shaken at 37° C. at 800 rpm for 24 h. After centrifugal filtration, the sample was subjected to HPLC-UV linear quantitative analysis for concentration.
FeSSIF (fed state simulated intestinal fluid): an aqueous buffer solution comprising 0.282% (w/v) lecithin, 0.806% (w/v) sodium taurocholate, 0.865% (w/v) acetic acid, 1.52% (w/v) potassium chloride, with a pH of […]

[2] = Dynamic vapor sorption (DVS) hygroscopicity; type: physicochemical; settings: from the DVS patterns, 25° C.
Protocol: 1.4. Dynamic Vapor Sorption (DVS) Method of the Present Application
Instrument model: DVS Intrinsic instrument from SMS (Surface Measurement Systems) Inc.
Temperature: 25° C.; sample amount: 10-30 mg; protective gas and flow: N2, 200 mL/min; dm/dt: 0.002%/min; minimum dm/dt equilibration time: 10 min; maximum equilibration time: 180 min; RH range: 0% RH-95% RH-0% RH; RH gradient: 10% (90% RH-0% RH-90% RH), 5% (95% RH-90% RH and 90% RH-95% RH).

[3] = In vivo pharmacokinetic study after a single oral dose; settings: dog; female beagle dogs, single oral dose 100 mg/kg at 1 h after feeding, plasma, mean
Protocol: This experiment was intended to evaluate the pharmacokinetic behavior of the compound after a single intragastric administration and to investigate bioavailability after intragastric administration. Two female beagle dogs were each given a single oral dose of the crystalline form I of the compound of formula (II) at 100 mg/kg at 1 h after feeding, and plasma samples were taken at 0.0833 (5 min), 0.25 (15 min), 0.5 (30 min), 1, 2, 4, 6, 8, 12, and 24 h after administration and assayed for the concentration of the test substance by LC-MS/MS.

[4] = Forced degradation experiment; type: physicochemical
Protocol: Control group: 20 mg of a sample was weighed out, a proper amount of diluent (acetonitrile:water=1:1, v/v) was added to dissolve the sample, and then the solution was brought to a volume of 100 mL with the diluent (acetonitrile:water=1:1, v/v). A proper amount of the solution was taken for analysis. Acidic degradation: 20 mg of the sample was weighed out, and 1 mL of a 1 M aqueous HCl solution was added. After sitting at room temperature for 24 h, the mixture was neutralized with 1 mL of a 1 M aqueous NaOH solution. The solution was brought to a volume of 100 mL with the diluent (acetonitrile:water=1:1, v/v). A proper amount of the solution was taken for analysis. Basic degradation: 20 mg of the sample was weighed out, and 1 mL of a 1 M aqueous NaOH solution was added. After sitting at room temperature for 24 h, the mixture was neutralized with 1 mL of a 1 M aqueous HCl solution. The solution was brought to a volume of 100 mL with the diluent (acetonitrile:water=1:1, v/v). A proper amount of the solution was taken for analysis. Oxidative degradation: 20 mg of the sample was weighed out, 1 mL of a 3% aqueous hydrogen peroxide solution was added, and the mixture was left at room temperature for 24 h. The solution was brought to a volume of 100 mL with the diluent (acetonitrile:water=1:1, v/v). A proper amount of the solution was taken for analysis.

[5] = tested on: breast cancer patients; settings: intramuscular injection; cited from earlier work
[6] = oral administration; cited from earlier work
[7] = Vehicle: FeSSIF (fed state simulated intestinal fluid)

solubility at 24 h [1, 7]: 1950 µg/mL
SMILES: CC/C(=C(/c1ccc(OCCNC/C=C/C(=O)N(C)C)nc1)c1[nH]c2ccccc2c1Cl)c1ccccc1.O=C(O)/C=C/C(=O)O

solubility at 24 h ([1]; purified water, Vehicle: Water): < 0.8 µg/mL
solubility at 24 h [1, 7]: 316 µg/mL (≈ 597 µM)
SMILES: CC/C(=C(/c1ccc(OCCNC/C=C/C(=O)N(C)C)nc1)c1[nH]c2ccccc2c1Cl)c1ccccc1

Total impurities ([4]; Acidic degradation: 1 M aqueous HCl, room temperature, 24 h): 0.56%
Total impurities ([4]; Basic degradation: 1 M aqueous NaOH, room temperature, 24 h): 0.54%
Total impurities ([4]; Not degraded (control group, dissolved in acetonitrile:water 1:1)): 0.60%
Total impurities ([4]; Oxidative degradation: 3% aqueous hydrogen peroxide, room temperature, 24 h): 3.5%
SMILES: CC/C(=C(/c1ccc(OCCNC/C=C/C(=O)N(C)C)nc1)c1[nH]c2ccccc2c1Cl)c1ccccc1.Cl [listing 2 of 2 here]

The next lines start with the compound.

SMILES: CC/C(=C(/c1ccc(OCCNC/C=C/C(=O)N(C)C)nc1)c1[nH]c2ccccc2c1Cl)c1ccccc1.Cl [listing 1 of 2 here]
solubility at 24 h ([1]; purified water, Vehicle: Water): 237 µg/mL
solubility at 24 h [1, 7]: 1900 µg/mL
Hygroscopicity [2]: lower hygroscopicity than the amorphous form
AUC(0-t) [3]: 229 µM·h
Cmax [3]: 14 µM
Tmax [3]: 6 h
half-life [3]: 894 min
Total impurities ([4]; Acidic degradation: 1 M aqueous HCl, room temperature, 24 h, listed as crystalline form I of the compound of formula (II)): 0.34%
Total impurities ([4]; Basic degradation: 1 M aqueous NaOH, room temperature, 24 h, listed as crystalline form I of the compound of formula (II)): 0.35%
Total impurities ([4]; Not degraded (control group, dissolved in acetonitrile:water 1:1), listed as crystalline form I of the compound of formula (II)): 0.34%
Total impurities ([4]; Oxidative degradation: 3% aqueous hydrogen peroxide, room temperature, 24 h, listed as crystalline form I of the compound of formula (II)): 0.92%

SMILES: Br.CC/C(=C(/c1ccc(OCCNC/C=C/C(=O)N(C)C)nc1)c1[nH]c2ccccc2c1Cl)c1ccccc1
solubility at 24 h [1, 7]: 1370 µg/mL

SMILES: C[C@]12CC[C@@H]3c4ccc(O)cc4C[C@@H](CCCCCCCCC[S+]([O-])CCCC(F)(F)C(F)(F)F)[C@H]3[C@@H]1CC[C@@H]2O (stereo partly drawn) [fulvestrant]
Clinical response rate [5]: about 50%
Bioavailability [6]: zero
